Measurements: ChEMBL document CHEMBL3091286 (Bioorg Med Chem, 2013)

Test: Displacement of [3H]-quipazine from 5-HT3 receptor in mouse/rat NG108-15 cells
Type: cell-based

O=C1c2cccc3c2[C@H](CCC3)CN1[C@@H]1CN2CCC1CC2 [PALONOSETRON]
pKi: 10.5
